Experimental data taken from patent US10959984B2, “Methods for treating cancer with RORγ inhibitors” (THE REGENTS OF THE UNIVERSITY OF CALIFORNIA, priority 2015, dated 2021).

Columns and labels:
[1] = system: HER2-positive cells, such as SKBR3 and HCC1954; assay: CellTiter-GLO viability, HER2-positive breast cancer cells; type: cell-based, human; conditions: SKBR3 and HCC1954, 4 days
Protocol: (§1) For cell viability, cells were seeded in 96-well plates at 1500-2500 cells per well (optimum density for growth) in a total volume of 100 μl media. Serially diluted compounds in […] of media were added to the cells 12 hours later. After 4 days of incubation, Cell-Titer GLO reagents (Promega) were added and luminescence was measured on GLOMAX microplate luminometer (Promega), according to the manufacturer's instructions. All experimental points were set up as sextuplicate as biological replication and the entire experiments were repeated three times. The data are presented as percentage of viable cells with vehicle treated cells set as 100. The estimated in vitro IC50 values were calculated using GraphPad Prism 6 software.
(§2) Using a CellTiter-GLO assay, the viability of cells of different cancer types was measured after treatment with different concentrations of RORγ small molecule inhibitors for 4 days.

[2] = system: OVCAR420, T24, ECC1, HepG2, Hep3B, T98G, SUDHL4, SUDHL6, HCT116 and docetaxel-resistant C4-2B cells; assay: CellTiter-GLO viability, cells of other cancer types; type: cell-based, human; conditions: ovarian OVCAR420, bladder T24, endometrial ECC1, liver HepG2 and Hep3B, glioblastoma T98G, DLBCL SUDHL4 and SUDHL6, colon HCT116, docetaxel-resistant C4-2B; 4 days
Protocol: as §1, §2

[3] = system: ER-positive cells, such as MCF-7 and T47D; assay: CellTiter-GLO viability, ER-positive breast cancer cells; type: cell-based; conditions: Homo sapiens, 96 h; ER-positive cells MCF-7 and T47D, treated for 4 days
Protocol: as §1, §2

[4] = system: C4-2B and 22Rv1 cells; assay: Apoptosis (caspase-3/7 activity, TUNEL); type: cell-based, human
Protocol: (§3) For apoptosis, Terminal deoxynucleotidyl transferase-mediated dUTP nick end labeling (TUNEL) was performed by using in situ cell death detection kit (Roche) as previously described^56. The results are expressed as a percentage of apoptotic cell number/total cell number. Caspase-3/7 activity was measured using a luminescent caspase-Glo 3/7 assay kit (Promega Corporation, Madison, USA) following the manufacturer's instructions. For cell growth, cells were seeded in 6-well plates at 2×10^5 per well and treated as indicated. Total viable cell numbers were counted using a Coulter cell counter. For colony formation, 800 cells were seeded in a well of 6-well plates and cultured for 14 days with the medium changed every 3 days. When the cell clone grew visible, the medium was removed and the cells were fixed with […] formalin for 10 minutes. Then the plates were washed with PBS for two times and the cell colonies were stained with 0.2% crystal violet (in 10% formalin) for 15 minutes. The numbers of cell colonies were counted after washed 5 times by PBS. The above assays were performed in triplicates and the entire experiments were repeated three times.

[5] = system: H3K4me3 and H3K27ac at the RORE site and AR promoter; assay: ChIP-qPCR at the AR-RORE site and AR promoter; type: cell-based, human; conditions: C4-2B cells, 5 μM, 24 h
Protocol: ChIP-qPCR analysis was performed as described previously^49. The antibodies used for ChIP assay are AR (Santa Cruz; sc-815); RNA Pol-II (Santa cruz; sc-899); H3K4me2 (Abcam ab32356); H3K4me3 (Abcam; ab8580); H3K27ac (Abcam; ab4729); H3 (Active Motif; #39163); p300 (Santa Cruz; sc-585); SRC-1 (Santa Cruz; sc-8995); SRC-3/ACTR^64, and IgG (Santa Cruz; sc-2027). PCR primers used in the ChIP assays were listed in the Supplementary table 2. ChiPs were performed with each experimental point in triplicate, and each experiment was repeated three times.

[6] = system: VCaP xenograft tumors; assay: Spontaneous metastasis of VCaP xenografts (Alu-qPCR); type: in vivo, mice; conditions: treated 23 d
Protocol: FIGS. 28A-28C show the in vivo effects of RORγ inhibition on tumor metastasis, mouse body weight and organ weight in xenograft models. FIG. 28A: Mice bearing VCaP xenografts as in FIG. 11D, treated with vehicle, SR2211, ENZ or combination for 23 d, were assessed for spontaneous metastasis to the femur (bone marrow) and liver. Genomic DNA isolated from these sites was analyzed for metastasized cells by measuring human Alu sequence (by Alu-qPCR). FIG. 28B: Body weight of mice from different treatment groups. FIG. 28C: Weight of indicated tissues from mice treated with vehicle or SR2211 for 24 days as in FIG. 11A of C4-2B xenograft model. Significance was calculated using Student's t-test, *p=0.01, n=6.

[7] = system: C4-2B and 22Rv1 cells; assay: Colony formation, 14 d; type: cell-based, human
Protocol: as §3

[8] = system: A549 human lung cancer cells xenograft tumors; assay: A549 lung cancer xenograft tumor growth; type: in vivo, mice; conditions: A549 xenografts, 5 mg/kg/day i.p., six weeks
Protocol: FIG. 32A: Cell viability, as measured by Cell-Titer GLO, of different lung cancer cells treated with the indicated concentrations of SR2211 for 4 days. FIG. 32B: Cell viability, as measured by Cell-Titer GLO, of different lung cancer cells treated with the indicated concentrations of GSK805 for 4 days. FIG. 32C: Half-maximal inhibitory concentration (IC50) for SR2211 and GSK805 in indicated lung cancer cell lines treated for 4 days. FIG. 32D: Effects of the indicated treatments (SR2211, 5 mg/kg i.p. five times per week; or vehicle) on the growth of lung cancer A549 xenografts (n=6 mice per group). Treatment started when A549 tumors reached approximately 100 mm^3. Mean tumor volume±s.e.m., Mean tumor weight±s.e.m. and representative tumor images are shown. P<0.01.

[9] = system: AR-positive PCa cells; assay: Prostate cancer cell growth and survival (cell viability / cell growth); type: cell-based, human
Protocol: as §1, §3

IC50 [3]: > 10 µM
SMILES: OC(c1ccc(-c2ccc(CN3CCN(Cc4ccncc4)CC3)cc2)c(F)c1)(C(F)(F)F)C(F)(F)F [SR2211, 2-Fluoro-4′-[[4-(4-pyridinylmethyl)-1-piperazinyl]methyl]-a,a-bis (trifluoromethyl)-[1,1′-biphenyl]-4-methanol]
inhibition of HER2-positive cells [1]: relatively strong inhibition
growth and survival of cancer cells of other types [2]: significant inhibition of the growth and survival
apoptosis [4]: marked apoptosis
gene activating marks H3K4me3 and H3K27ac at the RORE site and AR promoter [5]: strongly reduced
metastasis to femur bone and liver [6]: strongly inhibited the metastasis to femur bone and liver
colony formation [7]: poor colony formation
tumor growth of xenograft lung tumor model [8]: strongly inhibited tumor growth
growth inhibition in other AR-positive PCa cell models ([9]; 22Rv1, VCaP, LNCaP, LAPC4 and PC346C): strong growth inhibition
inhibition of AR-positive PCa cell growth and survival ([9]; different cell line models): potent inhibition of AR-positive PCa cell growth and survival
